According to PubChem BioAssay (NCI):
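Cells were grown in 96-well plates and exposed to each compound for 48 hours at five concentrations; endpoints were interpolated linearly between bracketing concentrations, or set to the highest concentration if not reached. GI50 = concentration required for 50% inhibition of growth. TGI: concentration producing complete growth inhibition.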

What was measured:
Test in all cases: inhibition of tumour cell growth, NCI panel, 48 h
MALME-3M melanoma = test system: MALME-3M melanoma
SN12C renal = test system: SN12C renal
786-0 renal = test system: 786-0 renal
HCT-15 colon = test system: HCT-15 colon
HCC-2998 colon = test system: HCC-2998 colon
SNB-19 CNS = test system: SNB-19 CNS
OVCAR-3 ovarian = test system: OVCAR-3 ovarian
HT29 colon = test system: HT29 colon
A498 renal = test system: A498 renal
UO-31 renal = test system: UO-31 renal

| SMILES | GI50 (MALME-3M melanoma) | TGI (MALME-3M melanoma) | GI50 (SN12C renal) | TGI (SN12C renal) | GI50 (786-0 renal) | TGI (786-0 renal) | GI50 (HCT-15 colon) | TGI (HCT-15 colon) | GI50 (HCC-2998 colon) | TGI (HCC-2998 colon) | GI50 (SNB-19 CNS) | TGI (SNB-19 CNS) | GI50 (OVCAR-3 ovarian) | TGI (OVCAR-3 ovarian) | GI50 (HT29 colon) | TGI (HT29 colon) | GI50 (A498 renal) | TGI (A498 renal) | GI50 (UO-31 renal) | TGI (UO-31 renal) |
| --- | --- | --- | --- | --- | --- | --- | --- | --- | --- | --- | --- | --- | --- | --- | --- | --- | --- | --- | --- | --- |
| CC(C)(C)c1nn(-c2ccccc2)c2c1C(=O)CSC(c1ccccc1Cl)N2 (stereo unspecified) | 14.7 µM | 32.6 µM | 3.26 µM | 14.7 µM | 3.32 µM | 15.1 µM | 2 µM | 16 µM | 2.08 µM | 7.51 µM | 2.54 µM | 15.2 µM | 1.37 µM | 6.37 µM | 1.97 µM | 6.55 µM | 0.353 µM | 3.78 µM | 3.03 µM | 19.1 µM |
| O=NNc1ccc(S(=O)(=O)c2ccccc2)cn1 | – | > 100 µM | – | > 100 µM | – | > 100 µM | – | > 100 µM | – | > 100 µM | – | > 100 µM | – | > 100 µM | – | > 100 µM | – | > 100 µM | – | > 100 µM |
| Clc1cc(Cc2cc(Cl)c(Cl)c3c2OCOC3)c2c(c1Cl)COCO2 | – | > 100 µM | – | > 100 µM | – | 62.4 µM | – | > 100 µM | – | > 100 µM | – | > 100 µM | – | 69 µM | – | > 100 µM | – | 80.4 µM | – | > 100 µM |
| O=C1NC(=O)C2C(=O)NC(=O)C1C2(c1ccccc1)c1cc[nH]c1 (stereo unspecified) | – | > 100 µM | – | > 100 µM | – | > 100 µM | – | > 100 µM | – | > 100 µM | – | > 100 µM | – | > 100 µM | – | > 100 µM | – | > 100 µM | – | > 100 µM |
| O=C(c1ccco1)c1nc2cc(Cl)ccc2[n+]([O-])c1C(F)(F)F | 47.9 µM | > 100 µM | 91 µM | > 100 µM | > 100 µM | > 100 µM | 32.7 µM | > 100 µM | 18.5 µM | 34.9 µM | 69 µM | > 100 µM | > 100 µM | > 100 µM | 52.9 µM | > 100 µM | > 100 µM | > 100 µM | > 100 µM | > 100 µM |
| COc1cc(-c2nn(-c3cccc(NC(=O)Nc4cc(C(F)(F)F)cc(C(F)(F)F)c4)c3)cc2-c2ccncc2)ccc1Cl | 0.677 µM | 2 µM | 0.471 µM | 1.96 µM | 0.892 µM | 1.82 µM | 0.756 µM | 2.97 µM | 1.09 µM | 2.65 µM | 0.59 µM | 4.25 µM | 0.293 µM | 1.07 µM | 0.619 µM | 1.68 µM | 0.587 µM | 2.13 µM | 0.612 µM | 1.52 µM |
| N#Cc1c(NN)nc(NN)c(C#N)c1-c1ccccc1 | – | > 100 µM | – | > 100 µM | – | > 100 µM | – | > 100 µM | – | > 100 µM | – | > 100 µM | – | > 100 µM | – | > 100 µM | – | > 100 µM | – | > 100 µM |
| N[C@@H]1CCCC[C@H]1N.O=C([O-])C(=O)[O-].[Pt+4] | 3.22 µM | 26.6 µM | 2.56 µM | > 100 µM | 0.752 µM | 42.9 µM | 0.646 µM | > 64.9 µM | 0.618 µM | 10 µM | 9.85 µM | > 100 µM | 5.71 µM | 25.9 µM | 0.175 µM | > 8.25 µM | 4.85 µM | 32.7 µM | 8.47 µM | 43.6 µM |
| N#CC(C(=O)CCC(=O)C(C#N)c1ccccc1)c1ccccc1 (stereo unspecified) | – | > 100 µM | – | > 100 µM | – | > 100 µM | – | > 100 µM | – | > 100 µM | – | > 100 µM | – | > 100 µM | – | > 100 µM | – | > 100 µM | – | > 100 µM |
| CCOC(=O)N1CCc2cc(OC)c(OC)c3c2c1cc1cc(OC)c(OC)cc13 | – | 51.5 µM | – | > 100 µM | – | > 100 µM | – | 37.9 µM | – | 55.6 µM | – | > 100 µM | – | 8.64 µM | – | 21.6 µM | – | 14.7 µM | – | > 100 µM |
| O=c1cc2ccccc2nn1Cc1cccc(Cl)c1 | – | > 100 µM | – | > 100 µM | – | > 100 µM | – | > 100 µM | – | > 100 µM | – | > 100 µM | – | > 100 µM | – | > 100 µM | – | > 100 µM | – | > 100 µM |
| Nc1c(Br)cc(Br)c2c1[nH]c(=O)c1ccccc12 | 3.43 µM | 10.1 µM | 8.09 µM | > 100 µM | 2.72 µM | 7.83 µM | 60.1 µM | > 100 µM | > 100 µM | > 100 µM | 10.2 µM | 57.5 µM | 11.5 µM | 43.4 µM | > 29.7 µM | > 100 µM | 1.68 µM | 4.86 µM | 2.17 µM | 5.9 µM |
| CC(C)[C@H](CO)Nc1nc(Nc2ccc(C(=O)NCCNS(=O)(=O)c3cccc4c(N(C)C)cccc34)c(Cl)c2)c2ncn(C(C)C)c2n1 | > 25.5 µM | > 100 µM | 2.81 µM | > 100 µM | 3.15 µM | > 100 µM | 4.29 µM | > 100 µM | 2.9 µM | > 100 µM | 2.93 µM | > 100 µM | 2.65 µM | > 66.9 µM | 2.5 µM | > 41.8 µM | 1.83 µM | 6.1 µM | 9.78 µM | > 100 µM |
| O=c1ccn(C2OC(CO/N=C/c3ccc(O)c(O)c3O)C(O)C2O)c(=O)[nH]1 (stereo unspecified) | 10.1 µM | > 100 µM | 20.1 µM | 38.7 µM | > 100 µM | > 100 µM | 20.5 µM | 50.4 µM | > 100 µM | > 100 µM | – | – | 13.6 µM | 27.7 µM | 28.9 µM | 84.3 µM | 15.4 µM | 39.2 µM | 17.2 µM | 31.6 µM |
| CCC1(c2c(F)c(F)c(N)c(F)c2F)CCC(=O)NC1=O (stereo unspecified) | – | > 100 µM | – | – | – | > 100 µM | – | > 100 µM | – | > 100 µM | – | > 100 µM | – | > 100 µM | – | > 100 µM | – | > 100 µM | – | > 100 µM |
| N/C(=C\c1ccc(OCc2ccccc2)c(OCc2ccccc2)c1[N+](=O)[O-])C(=O)O | – | > 100 µM | – | > 100 µM | – | > 100 µM | – | – | – | > 100 µM | – | > 100 µM | – | > 100 µM | – | > 100 µM | – | > 100 µM | – | > 100 µM |
